Data from ChEMBL document CHEMBL1156230, “Identification of phenylsulfone-substituted quinoxaline (WYE-672) as a tissue selective liver X-receptor (LXR) agonist” (J Med Chem, 2010).
pEC50, pIC50: −log10 of the molar value. Active and inactive are the calls of the source. The calls are words filed in the database; no cut-off is given here.

How the values were obtained:
[1] = Plasma concentration in high fat/high cholesterol fed LDLR-deficient mouse administered with diet for 8 weeks measured after 3 hrs of last dose; type: ADME, organism-based; details: po
[2] = test system: Mus musculus; experiment: Antiatherosclerotic activity against high fat/high cholesterol fed LDLR-deficient mouse assessed as IPl gene regulation at 3 mg/kg administered with diet for 7 days by Experion chip analysis; type: functional, organism-based; set-up: dose 3 mg/kg
[3] = target: Oxysterols receptor LXR-alpha (Homo sapiens, UniProt Q13133)
[4] = target: T1, Oxysterols receptor LXR-beta (Homo sapiens, UniProt P55055)
[5] = target: T1, Oxysterols receptor LXR-beta; experiment: Displacement of [3H]T0901317 from human LXRbeta ligand binding domain
[6] = Cmax in C57 mouse at 10 mg/kg, po; type: ADME, organism-based; set-up: dose 10 mg/kg, route oral; details: in vivo
[7] = AUC (0 to infinity) in C57 mouse at 10 mg/kg, po; type: ADME, organism-based; set-up: time infinity, dose 10 mg/kg, route oral; details: plasma
[8] = Tmax in C57 mouse at 10 mg/kg, po; type: ADME, organism-based; set-up: dose 10 mg/kg, route oral; details: in vivo
[9] = target: T2, Oxysterols receptor LXR-alpha (Homo sapiens, UniProt Q13133); experiment: Displacement of [3H]T0901317 from human LXRalpha ligand binding domain
T2 sequence (Q13133 whole entry): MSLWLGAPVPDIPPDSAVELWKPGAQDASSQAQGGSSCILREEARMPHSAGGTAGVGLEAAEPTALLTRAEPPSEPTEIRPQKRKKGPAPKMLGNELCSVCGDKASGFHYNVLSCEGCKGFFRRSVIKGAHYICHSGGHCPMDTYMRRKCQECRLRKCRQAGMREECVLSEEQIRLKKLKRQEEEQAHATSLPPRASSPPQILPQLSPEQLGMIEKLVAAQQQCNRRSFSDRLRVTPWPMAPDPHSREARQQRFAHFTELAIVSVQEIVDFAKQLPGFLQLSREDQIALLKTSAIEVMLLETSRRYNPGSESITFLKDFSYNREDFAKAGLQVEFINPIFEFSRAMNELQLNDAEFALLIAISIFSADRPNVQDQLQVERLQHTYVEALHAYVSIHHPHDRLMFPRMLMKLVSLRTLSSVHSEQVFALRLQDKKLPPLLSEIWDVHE

[10] = target: T3, Peroxisome proliferator-activated receptor delta (Homo sapiens) (UniProt Q03181); experiment: Binding affinity to PPARdelta
T3 sequence (whole entry): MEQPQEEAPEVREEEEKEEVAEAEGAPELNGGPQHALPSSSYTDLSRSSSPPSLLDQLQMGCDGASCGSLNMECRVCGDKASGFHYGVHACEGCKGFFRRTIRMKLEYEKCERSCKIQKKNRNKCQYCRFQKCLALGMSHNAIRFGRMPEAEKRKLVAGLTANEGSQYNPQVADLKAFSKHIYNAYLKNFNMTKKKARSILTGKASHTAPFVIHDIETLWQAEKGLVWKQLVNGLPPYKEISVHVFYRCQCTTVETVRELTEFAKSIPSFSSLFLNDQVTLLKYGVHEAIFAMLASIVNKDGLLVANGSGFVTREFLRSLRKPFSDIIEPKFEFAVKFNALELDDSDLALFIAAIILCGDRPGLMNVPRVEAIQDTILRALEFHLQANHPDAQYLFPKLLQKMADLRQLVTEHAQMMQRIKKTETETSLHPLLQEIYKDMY

[11] = target: T4, Androgen receptor (Homo sapiens) (UniProt P10275); experiment: Binding affinity to androgen receptor
T4 sequence (whole entry): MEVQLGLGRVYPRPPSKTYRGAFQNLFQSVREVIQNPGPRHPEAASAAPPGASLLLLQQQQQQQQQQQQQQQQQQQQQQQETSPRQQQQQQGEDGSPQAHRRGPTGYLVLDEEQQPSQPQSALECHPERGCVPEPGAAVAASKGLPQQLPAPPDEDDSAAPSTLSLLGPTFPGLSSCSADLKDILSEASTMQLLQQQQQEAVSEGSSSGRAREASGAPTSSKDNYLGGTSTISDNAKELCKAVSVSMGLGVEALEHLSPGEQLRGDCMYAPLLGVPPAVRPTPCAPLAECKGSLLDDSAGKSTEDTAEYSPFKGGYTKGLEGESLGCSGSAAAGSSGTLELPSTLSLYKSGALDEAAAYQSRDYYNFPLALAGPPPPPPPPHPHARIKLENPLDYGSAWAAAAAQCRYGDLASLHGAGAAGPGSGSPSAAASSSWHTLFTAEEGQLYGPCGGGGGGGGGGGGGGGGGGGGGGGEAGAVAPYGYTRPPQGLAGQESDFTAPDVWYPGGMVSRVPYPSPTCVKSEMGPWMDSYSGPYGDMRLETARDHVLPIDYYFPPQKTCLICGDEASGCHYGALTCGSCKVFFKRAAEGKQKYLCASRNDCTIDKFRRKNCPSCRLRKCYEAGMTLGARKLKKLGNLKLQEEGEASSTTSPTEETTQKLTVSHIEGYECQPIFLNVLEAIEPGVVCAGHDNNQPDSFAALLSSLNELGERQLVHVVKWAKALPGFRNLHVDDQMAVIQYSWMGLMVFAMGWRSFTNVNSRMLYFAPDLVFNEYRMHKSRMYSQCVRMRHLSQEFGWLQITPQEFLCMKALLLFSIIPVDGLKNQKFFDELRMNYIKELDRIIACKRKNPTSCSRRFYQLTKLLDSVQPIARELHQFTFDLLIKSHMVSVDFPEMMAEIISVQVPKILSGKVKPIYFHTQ

[12] = test system: HepG2; experiment: Agonist activity at LXR in human HepG2 cells assessed as lipid accumulation relative to T0901317
[13] = Plasma concentration in high fat/high cholesterol fed LDLR-deficient mouse at 0.6 mg/kg, qd administered with diet for 8 weeks measured after 3 hrs of last dose; type: ADME, organism-based; set-up: dose 0.6 mg/kg; details: po
[14] = target: T5, Bile acid receptor (Homo sapiens) (UniProt Q96RI1); experiment: Binding affinity to FXR
T5 sequence (whole entry): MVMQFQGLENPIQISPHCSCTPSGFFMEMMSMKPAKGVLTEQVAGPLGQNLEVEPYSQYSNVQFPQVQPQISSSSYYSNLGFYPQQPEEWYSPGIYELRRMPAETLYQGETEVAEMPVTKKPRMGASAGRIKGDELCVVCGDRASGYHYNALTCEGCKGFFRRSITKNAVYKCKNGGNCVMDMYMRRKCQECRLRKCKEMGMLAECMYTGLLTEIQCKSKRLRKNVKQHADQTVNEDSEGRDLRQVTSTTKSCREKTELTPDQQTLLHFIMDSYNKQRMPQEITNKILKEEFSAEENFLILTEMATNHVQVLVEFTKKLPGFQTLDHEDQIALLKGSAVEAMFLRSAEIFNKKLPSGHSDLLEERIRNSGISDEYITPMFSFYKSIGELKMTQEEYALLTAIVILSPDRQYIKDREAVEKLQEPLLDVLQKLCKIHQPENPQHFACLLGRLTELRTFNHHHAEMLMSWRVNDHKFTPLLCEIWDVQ

[15] = Plasma concentration in high fat/high cholesterol fed LDLR-deficient mouse at 3 mg/kg, qd administered with diet for 8 weeks measured after 3 hrs of last dose; type: ADME, organism-based; set-up: dose 3 mg/kg; details: po

T1 sequence (P55055 whole entry, the tested form may be a part): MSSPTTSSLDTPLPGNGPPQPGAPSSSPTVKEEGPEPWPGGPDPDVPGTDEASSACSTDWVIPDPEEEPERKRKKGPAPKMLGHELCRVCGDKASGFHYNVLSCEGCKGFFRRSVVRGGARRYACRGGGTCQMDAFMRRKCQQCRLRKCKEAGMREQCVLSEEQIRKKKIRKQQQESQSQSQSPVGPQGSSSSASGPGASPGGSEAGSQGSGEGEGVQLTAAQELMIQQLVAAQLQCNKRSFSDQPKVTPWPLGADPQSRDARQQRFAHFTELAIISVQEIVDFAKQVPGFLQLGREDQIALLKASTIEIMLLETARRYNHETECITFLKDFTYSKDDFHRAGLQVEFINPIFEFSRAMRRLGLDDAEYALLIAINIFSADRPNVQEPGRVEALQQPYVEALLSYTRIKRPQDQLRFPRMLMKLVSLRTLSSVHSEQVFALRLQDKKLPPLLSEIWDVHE

Row | Structure (SMILES) | concentration at 3 h [1] [ng/mL] | Activity [2] | pEC50 [3] | pEC50 [4] | pIC50 [5] | Cmax [6] [ng/mL] | AUC(0-inf) [7] [ng·h/mL] | Tmax [8] [h] | pIC50 [9] | Activity [10] | Activity [11] | Efficacy [12] [%] | concentration at 3 h [13] [ng/mL] | Activity [14] | concentration at 3 h [15] [ng/mL]
1 | O=C(O)Cc1cccc(OCCCN(Cc2cccc(C(F)(F)F)c2Cl)CC(c2ccccc2)c2ccccc2)c1 | 175 | Active | – | – | – | – | – | – | – | – | – | – | – | – | –
2 | Cc1nc2c(C(F)(F)F)cccc2nc1-c1ccc(-c2cccc(S(C)(=O)=O)c2)cc1 | – | – | 5.77 | 6.24 | 7.28 | 229 | 2440 | 4 | < 6.00 | inactive | inactive | 7 | 1020 | inactive | 10800
